Test results as given in the NIST ThermoML archive (doi:10.1021/acs.jced.5b00838).
Numbers after ± are expanded uncertainties.

Test: excess molar enthalpy (molar enthalpy of mixing); xn = mol fraction of the nth substance listed
Details: 100 kPa, Liquid, isothermal titration calorimetry

CCCCCCCOC [1-methoxyheptane] + CC#N
excess molar enthalpy [kcal/mol]
Details	298.15 K	308.15 K
x2 = 0.0304	–	0.0322 ± 0.00055
x2 = 0.0307	0.0291 ± 0.000526	–
x2 = 0.059	–	0.0602 ± 0.00086
x2 = 0.0595	0.0573 ± 0.000837	–
x2 = 0.0859	–	0.0845 ± 0.00115
x2 = 0.0867	0.0816 ± 0.00112	–
x2 = 0.1114	–	0.106 ± 0.00141
x2 = 0.1123	0.103 ± 0.00136	–
x2 = 0.1354	–	0.125 ± 0.00165
x2 = 0.1366	0.121 ± 0.0016	–
x2 = 0.1799	–	0.156 ± 0.00201
x2 = 0.1813	0.151 ± 0.00196	–
x2 = 0.22	–	0.181 ± 0.00232
x2 = 0.2216	0.175 ± 0.00225	–
x2 = 0.2563	–	0.201 ± 0.00263
x2 = 0.2582	0.194 ± 0.00239	–
x2 = 0.2894	–	0.216 ± 0.00287
x2 = 0.2914	0.209 ± 0.00263	–
x2 = 0.3197	–	0.229 ± 0.00287
x2 = 0.3218	0.221 ± 0.00287	–
x2 = 0.3732	–	0.248 ± 0.00311
x2 = 0.3754	0.239 ± 0.00311	–
x2 = 0.4188	–	0.26 ± 0.00335
x2 = 0.4212	0.25 ± 0.00311	–
x2 = 0.4583	–	0.268 ± 0.00335
x2 = 0.4607	0.258 ± 0.00335	–
x2 = 0.5008	–	0.273 ± 0.00335
x2 = 0.5033	0.263 ± 0.00335	–
x2 = 0.5372	–	0.275 ± 0.00359
x2 = 0.5396	0.264 ± 0.00335	–
x2 = 0.5686	–	0.275 ± 0.00335
x2 = 0.571	0.264 ± 0.00335	–
x2 = 0.596	–	0.273 ± 0.00335
x2 = 0.5983	0.263 ± 0.00335	–
x2 = 0.6246	–	0.269 ± 0.00335
x2 = 0.6269	0.259 ± 0.00335	–
x2 = 0.6494	–	0.265 ± 0.00335
x2 = 0.6517	0.256 ± 0.00335	–
x2 = 0.6712	–	0.261 ± 0.00335
x2 = 0.6733	0.251 ± 0.00311	–
x2 = 0.6934	–	0.255 ± 0.00311
x2 = 0.6955	0.246 ± 0.00311	–
x2 = 0.7111	0.239 ± 0.00311	0.255 ± 0.00335
x2 = 0.7148	0.24 ± 0.00311	0.249 ± 0.00311
x2 = 0.7318	0.234 ± 0.00287	0.248 ± 0.00311
x2 = 0.7322	0.232 ± 0.00287	0.243 ± 0.00311
x2 = 0.7469	0.228 ± 0.00287	0.238 ± 0.00311
x2 = 0.7547	0.223 ± 0.00287	0.237 ± 0.00311
x2 = 0.7604	0.223 ± 0.00287	0.231 ± 0.00287
x2 = 0.7692	–	0.227 ± 0.00287
x2 = 0.7786	0.212 ± 0.00263	–
x2 = 0.7954	–	0.213 ± 0.00263
x2 = 0.8041	0.199 ± 0.00263	–
x2 = 0.8236	–	0.195 ± 0.00239
x2 = 0.8313	0.182 ± 0.00234	–
x2 = 0.8414	–	0.182 ± 0.00234
x2 = 0.8485	0.171 ± 0.0022	–
x2 = 0.86	–	0.168 ± 0.00217
x2 = 0.8664	0.157 ± 0.00203	–
x2 = 0.8795	–	0.151 ± 0.00196
x2 = 0.8851	0.141 ± 0.00184	–
x2 = 0.8999	–	0.131 ± 0.00172
x2 = 0.9047	0.123 ± 0.00163	–
x2 = 0.9212	–	0.109 ± 0.00146
x2 = 0.9251	0.101 ± 0.00136	–
x2 = 0.936	–	0.0913 ± 0.00124
x2 = 0.9391	0.0851 ± 0.00117	–
x2 = 0.9512	–	0.0721 ± 0.00103
x2 = 0.9536	0.0668 ± 0.000956	–
x2 = 0.9669	–	0.0506 ± 0.000789
x2 = 0.9686	0.0464 ± 0.000741	–
x2 = 0.9832	–	0.0265 ± 0.000526
x2 = 0.9841	0.0235 ± 0.000502	–

CCCCCOCCC [1-propoxypentane] + CC#N
Details	excess molar enthalpy [kcal/mol]
298.15 K, x2 = 0.031	0.041 ± 0.000669
298.15 K, x2 = 0.0602	0.0775 ± 0.00108
298.15 K, x2 = 0.0876	0.108 ± 0.00143
298.15 K, x2 = 0.1135	0.133 ± 0.00174
298.15 K, x2 = 0.1379	0.155 ± 0.00201
298.15 K, x2 = 0.183	0.191 ± 0.00239
298.15 K, x2 = 0.2236	0.219 ± 0.00287
298.15 K, x2 = 0.2604	0.24 ± 0.00311
298.15 K, x2 = 0.2938	0.256 ± 0.00335
298.15 K, x2 = 0.3243	0.27 ± 0.00335
298.15 K, x2 = 0.3781	0.288 ± 0.00359
298.15 K, x2 = 0.424	0.298 ± 0.00382
298.15 K, x2 = 0.4635	0.304 ± 0.00382
298.15 K, x2 = 0.5061	0.307 ± 0.00382
298.15 K, x2 = 0.5424	0.306 ± 0.00382
298.15 K, x2 = 0.5738	0.304 ± 0.00382
298.15 K, x2 = 0.6011	0.301 ± 0.00382
298.15 K, x2 = 0.6296	0.296 ± 0.00382
298.15 K, x2 = 0.6542	0.29 ± 0.00359
298.15 K, x2 = 0.6758	0.284 ± 0.00359
298.15 K, x2 = 0.6979	0.276 ± 0.00359
298.15 K, x2 = 0.7171	0.269 ± 0.00335
298.15 K, x2 = 0.734	0.262 ± 0.00335
298.15 K, x2 = 0.7491	0.255 ± 0.00311
298.15 K, x2 = 0.7625	0.248 ± 0.00311
298.15 K, x2 = 0.7644	0.242 ± 0.00311
298.15 K, x2 = 0.7829	0.232 ± 0.00287
298.15 K, x2 = 0.8022	0.221 ± 0.00287
298.15 K, x2 = 0.8226	0.207 ± 0.00263
298.15 K, x2 = 0.844	0.191 ± 0.00239
298.15 K, x2 = 0.8666	0.172 ± 0.00222
298.15 K, x2 = 0.8807	0.159 ± 0.00206
298.15 K, x2 = 0.8953	0.145 ± 0.00189
298.15 K, x2 = 0.9104	0.128 ± 0.0017
298.15 K, x2 = 0.926	0.11 ± 0.00148
298.15 K, x2 = 0.9421	0.089 ± 0.00122
298.15 K, x2 = 0.9531	0.0741 ± 0.00105
298.15 K, x2 = 0.9644	0.0577 ± 0.00086
298.15 K, x2 = 0.976	0.0399 ± 0.000693
298.15 K, x2 = 0.9879	0.0207 ± 0.000502
308.15 K, x2 = 0.0305	0.0427 ± 0.000693
308.15 K, x2 = 0.0592	0.0799 ± 0.00112
308.15 K, x2 = 0.0863	0.111 ± 0.00148
308.15 K, x2 = 0.1118	0.137 ± 0.00179
308.15 K, x2 = 0.136	0.16 ± 0.00208
308.15 K, x2 = 0.1806	0.197 ± 0.00263
308.15 K, x2 = 0.2208	0.225 ± 0.00287
308.15 K, x2 = 0.2572	0.247 ± 0.00311
308.15 K, x2 = 0.2904	0.265 ± 0.00335
308.15 K, x2 = 0.3207	0.278 ± 0.00359
308.15 K, x2 = 0.3742	0.297 ± 0.00382
308.15 K, x2 = 0.4199	0.309 ± 0.00382
308.15 K, x2 = 0.4594	0.315 ± 0.00406
308.15 K, x2 = 0.502	0.319 ± 0.00406
308.15 K, x2 = 0.5383	0.319 ± 0.00406
308.15 K, x2 = 0.5697	0.317 ± 0.00406
308.15 K, x2 = 0.6022	0.312 ± 0.00382
308.15 K, x2 = 0.6301	0.307 ± 0.00382
308.15 K, x2 = 0.6543	0.301 ± 0.00382
308.15 K, x2 = 0.6756	0.295 ± 0.00382
308.15 K, x2 = 0.6944	0.288 ± 0.00359
308.15 K, x2 = 0.7137	0.281 ± 0.00359
308.15 K, x2 = 0.7173	0.276 ± 0.00359
308.15 K, x2 = 0.7308	0.273 ± 0.00335
308.15 K, x2 = 0.7382	0.267 ± 0.00335
308.15 K, x2 = 0.7459	0.266 ± 0.00335
308.15 K, x2 = 0.7595	0.259 ± 0.00335
308.15 K, x2 = 0.7603	0.256 ± 0.00335
308.15 K, x2 = 0.7838	0.242 ± 0.00311
308.15 K, x2 = 0.8089	0.226 ± 0.00287
308.15 K, x2 = 0.8355	0.206 ± 0.00263
308.15 K, x2 = 0.8524	0.192 ± 0.00239
308.15 K, x2 = 0.8699	0.176 ± 0.00227
308.15 K, x2 = 0.8882	0.157 ± 0.00203
308.15 K, x2 = 0.9072	0.136 ± 0.00179
308.15 K, x2 = 0.9271	0.112 ± 0.00151
308.15 K, x2 = 0.9409	0.0938 ± 0.00129
308.15 K, x2 = 0.955	0.0737 ± 0.00105
308.15 K, x2 = 0.9695	0.0515 ± 0.000813
308.15 K, x2 = 0.9845	0.027 ± 0.00055
